Paper PMC9974930 (Journal of medicinal chemistry, 2023)

What was measured:
[1] = target: T1, recombinant human sEH (HsEH) (Homo sapiens, UniProt P34913); experiment: biochemical
T1 sequence (P34913 1-555): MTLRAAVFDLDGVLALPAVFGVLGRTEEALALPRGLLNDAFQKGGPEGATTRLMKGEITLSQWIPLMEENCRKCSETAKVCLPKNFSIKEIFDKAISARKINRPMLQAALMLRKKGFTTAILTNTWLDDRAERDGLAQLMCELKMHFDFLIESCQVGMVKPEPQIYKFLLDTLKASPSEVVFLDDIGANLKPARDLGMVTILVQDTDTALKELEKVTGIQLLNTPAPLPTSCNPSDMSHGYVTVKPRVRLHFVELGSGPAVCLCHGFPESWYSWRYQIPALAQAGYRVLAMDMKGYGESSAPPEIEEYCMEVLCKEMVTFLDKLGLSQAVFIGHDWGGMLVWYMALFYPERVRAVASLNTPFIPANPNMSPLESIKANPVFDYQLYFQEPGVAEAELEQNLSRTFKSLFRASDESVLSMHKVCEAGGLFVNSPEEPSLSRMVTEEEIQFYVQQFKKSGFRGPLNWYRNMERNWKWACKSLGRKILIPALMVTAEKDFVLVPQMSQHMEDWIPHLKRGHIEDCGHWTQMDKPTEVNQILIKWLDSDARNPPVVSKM

[2] = target: T2, murine sEH (MsEH) (Mus musculus, UniProt P34914); experiment: sEH inhibition, fluorescent-based assay with PHOME substrate; type: biochemical
T2 sequence (P34914 1-554): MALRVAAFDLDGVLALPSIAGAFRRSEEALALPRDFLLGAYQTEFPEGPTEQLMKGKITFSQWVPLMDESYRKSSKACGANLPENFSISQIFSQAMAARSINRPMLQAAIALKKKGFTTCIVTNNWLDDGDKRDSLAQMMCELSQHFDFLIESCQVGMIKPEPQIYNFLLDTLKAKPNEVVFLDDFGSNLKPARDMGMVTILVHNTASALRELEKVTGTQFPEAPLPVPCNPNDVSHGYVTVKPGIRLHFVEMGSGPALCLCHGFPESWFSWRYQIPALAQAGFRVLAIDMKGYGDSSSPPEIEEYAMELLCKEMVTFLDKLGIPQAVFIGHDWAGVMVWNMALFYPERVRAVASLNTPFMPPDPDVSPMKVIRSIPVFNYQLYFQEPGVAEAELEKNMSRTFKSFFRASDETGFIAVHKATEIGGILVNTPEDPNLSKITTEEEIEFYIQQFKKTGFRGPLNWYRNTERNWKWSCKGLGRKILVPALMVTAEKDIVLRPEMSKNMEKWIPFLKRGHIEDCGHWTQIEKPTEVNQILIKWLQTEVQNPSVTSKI

[3] = Pharmacokinetic study in vivo
[4] = system: IL-6, MCP-5 and TNF-α; experiment: ELISA of plasma inflammatory factors, LPS-induced sepsis model; type: in vivo, C57BL/6 mice; conditions: 5 mg / kg ip
[5] = system: CFA-induced AIA mice; experiment: CFA-induced arthritis; type: in vivo, Kunming mice; conditions: 10 mg / kg ip
[6] = Microsomal stability in rat liver microsomes
[7] = system: COX-2, sEH, NOS-2 and VCAM; experiment: Western blot of inflammatory factors in plasma, LPS-induced sepsis model; type: in vivo, C57BL/6 mice; conditions: 5 mg / kg ip
[8] = Microsomal stability in human liver microsomes
[9] = system: LPS-induced sepsis model; experiment: LPS-induced sepsis model, survival; type: in vivo, C57BL/6 mice; conditions: 28 hours; LPS 30 mg / kg ip; 5 mg / kg ip at 4 h and 12 h later
[10] = both, Sprague-Dawley, rat, in vivo, iv, 10 mg/kg

C[C@]12C[C@@H]3C[C@](C)(C1)C[C@@](NC(=O)Nc1ccc(C(=O)N4CCC(C(=O)N5CCN(CCO)CC5)CC4)cc1F)(C3)C2 [A4, 1-((1r,3R,5S,7r)-3,5-Dimethyladamantan-1-yl)-3-(2-fluoro-4-(4-(4-(2-hydroxyethyl)piperazine-1-carbonyl)piperidine-1-carbonyl)phenyl)urea]
IC50 [1]: 12.5 nM | IC50 [2]: 0.32 nM

CCC(=O)N1CCCN(C(=O)C2CCCN(Cc3ccc(NC(=O)N[C@@]45C[C@@H]6C[C@@](C)(C[C@@](C)(C6)C4)C5)c(F)c3)C2)CC1 (stereo partly drawn) [G1, 1-((1r,3R,5S,7r)-3,5-Dimethyladamantan-1-yl)-3-(2-fluoro-4-((3-(4-propionyl-1,4-diazepane-1-carbonyl)piperidin-1-yl)methyl)phenyl)urea]
LLE (ligand lipophilicity efficiency) [1]: 7.553 | AUC(0-inf) [3, 10]: 0.0115 µM·h | clearance [3, 10]: 4.83 mL/min/kg | AUC(0-inf) ([3]; both, Sprague-Dawley, rat, in vivo, po, 50 mg/kg): 0.0102 µM·h | CL ([3]; rats, po 50 mg / kg): 28.3 mL/min/kg | VZ ([3]; rats, po 50 mg / kg): 13.12 L/kg | IL-6 levels [4]: significant reduction in IL-6 levels | TNF-α levels [4]: considerably lowered TNF-α levels | effect of lowering MCP-5 [4]: lower than dexamethasone | effect on paw swelling rate, in words [5]: significantly reduced the swelling rate of mouse paw thickness | increase of pain valve (pain threshold, hot plate) [5]: 70.10% | reduced foot swelling, thickness [5]: 21.4% | reduced foot swelling, width [5]: 6.98% | body weight change ([5]; 24 h of drug treatment): increase in body weight | effect on pain threshold, in words ([5]; hot plate): faster onset of analgesia than celecoxib | time after administration at which analgesic effect began ([5]; hot plate): 10 min | time of peak analgesic effect ([5]; hot plate): 2 h | Mean concentration of G1 in microsomal buffer ([6]; time 0): 100 µg/mL | Mean concentration of G1 in microsomal buffer ([6]; time 10): 75.04 µg/mL | Mean concentration of G1 in microsomal buffer ([6]; time 30): 66.63 µg/mL | Mean concentration of G1 in microsomal buffer ([6]; time 60): 62.01 µg/mL | COX-2 expression levels [7]: higher than in the control group | NOS-2 expression [7]: reduced NOS-2 expression | expression of sEH ([7]; compared to the model group): significantly reduced the expression of sEH | vascular cell adhesion molecule (VCAM) ([7]; compared to the solvent group): little change | Mean concentration of G1 in microsomal buffer ([8]; time 0): 100 µg/mL | Mean concentration of G1 in microsomal buffer ([8]; time 10): 81.12 µg/mL | Mean concentration of G1 in microsomal buffer ([8]; time 30): 74.76 µg/mL | Mean concentration of G1 in microsomal buffer ([8]; time 60): 68.78 µg/mL

C[C@@H]1C[C@H]2[C@@H]3CCC4=CC(=O)C=C[C@]4(C)[C@@]3(F)[C@@H](O)C[C@]2(C)[C@@]1(O)C(=O)CO [dexamethasone, reference compound]
IL-6 levels [4]: significant reduction in IL-6 levels | TNF-α levels [4]: considerably lowered TNF-α levels | COX-2 expression levels [7]: higher than in the control group | survival rate [9]: all of the mice in the dexamethasone group died
